Test results reported in US10781182B2, “Compounds, process for obtaining the compounds, pharmaceutical composition, use of the compounds and method for treating psychiatric disorders and/or sleep disorders” (ACHÉ LABORATÓRIOS FARMACÊUTICOS S.A., priority 2016, dated 2020).
Converted amounts (≈) assume the structure as drawn.

Experiments:
[1] = Permeability in Caco-2 cells; assay type: in vitro ADME; details: human, Caco-2, pH 6.5, 37° C.
Method: Permeability tests were performed using Caco-2 cells, a colorectal epithelial adenocarcinoma cell line. These cells resemble intestinal epithelial cells in some aspects, such as the formation of a polarized monolayer, a well-defined brush border on the apical surface, and intercellular junctions.
The test is performed in both directions [apical to basolateral (A-B) and basolateral to apical (B-A)] through the cell monolayer, allowing an efflux ratio that provides an indicator as to whether a compound undergoes active efflux. Particle detection was performed with HPLC-MS/MS (mass spectrometry) according to the calculation of the peak area of the result. MS/MS was performed by combining two mass detectors in a single instrument.
A-B permeability was performed at pH 6.5/7.4 with incubation time of 0 and 60 minutes at 37° C. and B-A permeability was performed at pH 6.5/7.4 with incubation time of 0 and 40 minutes at 37° C.

[2] = Water solubility (shake-flask, PBS pH 7.4); assay type: physicochemical; details: aqueous buffer, thermodynamic from solid
Method: In addition, chromatographic purity (%) was defined as the calculation of the main peak area relative to the calculation of the peak area integrate of the standard HPLC calibration chromatogram. A standard calibration chromatogram was then generated for each compound tested along with a UV/VIS spectrum with maximal labeled absorbance. The shake-flash technique was used with constant stirring during incubation to keep a uniform medium for 24 hours in PBS at pH 7.4.

human hepatocytes = experiment: Intrinsic clearance in cryopreserved human hepatocytes; assay type: in vitro ADME
Method: Cryopreserved hepatocytes from humans, rats (Sprague-Dawley males) and from mice (CD-1 males) were used for incubation at different times (0, 0.5, 1, 1.5, 2 hours) at 37° C. followed by HPLC-MS/MS detection. The aim was to verify the clearance time of the test substance on hepatocytes. The experiment was performed on a 96-well plate and the cryopreserved hepatocytes were thawed and resuspended in Krebs-Heinslet buffer(pH 7.3). The reaction was started by adding each test compound to each cell suspension and performing the incubation at the times indicated above. The reaction was quenched with addition of acetonitrile in the wells and detection by HPLC-MS/MS (mass spectrometry). MS/MS is performed by combining two mass detectors into a single instrument.

CYP1A2 = CYP1A2 (Homo sapiens (Human), UniProt P05177); experiment: CYP inhibition, fluorogenic substrate; assay type: in vitro ADME
Chain of CYP1A2 (P05177 whole entry): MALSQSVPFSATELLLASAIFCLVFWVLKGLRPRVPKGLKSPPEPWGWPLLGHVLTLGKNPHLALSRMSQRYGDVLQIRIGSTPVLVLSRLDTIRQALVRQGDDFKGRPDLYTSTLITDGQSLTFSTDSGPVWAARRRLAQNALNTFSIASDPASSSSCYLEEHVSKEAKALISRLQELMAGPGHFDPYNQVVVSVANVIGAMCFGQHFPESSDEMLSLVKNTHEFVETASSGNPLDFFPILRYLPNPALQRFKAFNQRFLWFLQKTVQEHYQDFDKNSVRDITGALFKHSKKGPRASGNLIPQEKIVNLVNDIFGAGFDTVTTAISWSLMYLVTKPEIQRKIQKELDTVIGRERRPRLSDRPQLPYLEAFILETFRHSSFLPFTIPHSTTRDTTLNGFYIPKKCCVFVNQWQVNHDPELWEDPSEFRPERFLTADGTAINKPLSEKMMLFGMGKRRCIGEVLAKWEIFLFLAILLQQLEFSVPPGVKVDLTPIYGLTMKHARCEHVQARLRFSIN
Text: (§1) The CYP inhibition test used fluorogenic substrates specific to each CYP to check for inhibition thereof by detection of the expected metabolite using a fluorimetric method. Recombinant CYPs (CYP2B6, CYP2C8, […], CYP2C19, CYP2D6, CYP3A4) from specific humans for each cytochrome family, subfamily and polypeptide were used. The following were used as substrates: CEC (3-Cyano-7-Ethoxycoumarin) which forms as metabolite CHC (3-Cyano-7-Hydroxycoumarin); EFC (7-Ethoxy-4-trifluoromethyl coumarin), forming the metabolite HFC (7-Hydroxytri fluoromethylcoumarin); DBF (Dibenzylfluorescein) and its respective fluorescein metabolite; MFC (7-Methoxy-4-trifluoromethylcoumarin) which forms the metabolite HFC (7-Hydroxytrifluoromethylcoumarin); BFC (7-Benzyloxy-Trifluoromethylcoumarin) and its metabolite HFC; and BzRes (benzyloxyresorufin) to form resofurine. The detection of the metabolite was done with a fluorimetric method: analytical technique to identify and characterize the amount of substance by excitation using a beam of ultraviolet light and measurement of the emitted fluorescence. For detection, a 96-well plate was used. Each sample was tested in two wells (n=2) as standard condition. At least 04 wells were separated for vehicle (control). Compounds were tested at a concentration […], standard for this assay. They were preincubated with a NADPH generator system in a phosphate buffer (pH 7.4) for 5 minutes at 37° C. The reaction was started by adding the specific CYP enzymes, substrate and bovine serum albumin (BSA<0.4 mg/ml). Incubations were performed between 20-50 minutes at 37° C. according to the specific parameter of each fluorogenic substrate, for the evaluated component. Fluorescence at each well was detected before and after the incubation period.

CYP2B6 = CYP2B6 (Homo sapiens (Human), UniProt P20813); experiment: CYP inhibition, fluorogenic substrate; assay type: in vitro ADME; design: dose or concentration left out as unconfirmed; details: recombinant CYP2B6, pH 7.4
Chain of CYP2B6 (P20813 whole entry): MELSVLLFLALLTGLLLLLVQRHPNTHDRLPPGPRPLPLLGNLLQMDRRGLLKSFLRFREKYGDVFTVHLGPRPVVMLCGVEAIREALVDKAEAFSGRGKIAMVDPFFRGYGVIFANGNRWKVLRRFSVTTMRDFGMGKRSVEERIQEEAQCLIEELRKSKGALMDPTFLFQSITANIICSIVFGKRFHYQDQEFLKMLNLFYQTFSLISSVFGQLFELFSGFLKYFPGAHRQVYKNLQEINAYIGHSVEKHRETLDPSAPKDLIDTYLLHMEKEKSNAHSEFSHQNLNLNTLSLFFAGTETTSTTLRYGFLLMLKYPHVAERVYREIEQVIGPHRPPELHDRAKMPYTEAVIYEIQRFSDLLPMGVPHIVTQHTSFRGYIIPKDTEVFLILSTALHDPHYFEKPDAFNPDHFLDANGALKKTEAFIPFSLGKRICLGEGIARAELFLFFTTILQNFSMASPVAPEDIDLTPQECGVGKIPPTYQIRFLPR
Text: as §1

CYP2C19 = CYP2C19 (Homo sapiens (Human), UniProt P33261); experiment: CYP inhibition, fluorogenic substrate; assay type: in vitro ADME; design: dose or concentration left out as unconfirmed; details: recombinant CYP2C19, pH 7.4
Chain of CYP2C19 (P33261 whole entry): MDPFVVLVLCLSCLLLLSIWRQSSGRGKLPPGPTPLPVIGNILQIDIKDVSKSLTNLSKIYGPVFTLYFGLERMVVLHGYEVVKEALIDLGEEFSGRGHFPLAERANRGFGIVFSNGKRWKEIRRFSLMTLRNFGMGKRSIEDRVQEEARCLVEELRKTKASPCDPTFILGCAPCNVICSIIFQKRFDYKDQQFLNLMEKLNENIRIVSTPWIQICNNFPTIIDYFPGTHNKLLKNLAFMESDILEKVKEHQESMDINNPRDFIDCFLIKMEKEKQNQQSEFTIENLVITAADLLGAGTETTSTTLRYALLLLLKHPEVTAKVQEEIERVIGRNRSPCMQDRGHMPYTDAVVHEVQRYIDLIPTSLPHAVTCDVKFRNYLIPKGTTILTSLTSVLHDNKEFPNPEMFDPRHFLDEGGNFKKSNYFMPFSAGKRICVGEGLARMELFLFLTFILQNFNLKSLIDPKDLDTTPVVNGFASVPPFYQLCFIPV
Text: as §1

CYP2C8 = CYP2C8 (Homo sapiens (Human), UniProt P10632); experiment: CYP inhibition, fluorogenic substrate; assay type: in vitro ADME; design: dose or concentration left out as unconfirmed; details: recombinant CYP2C8, pH 7.4
Chain of CYP2C8 (P10632 whole entry): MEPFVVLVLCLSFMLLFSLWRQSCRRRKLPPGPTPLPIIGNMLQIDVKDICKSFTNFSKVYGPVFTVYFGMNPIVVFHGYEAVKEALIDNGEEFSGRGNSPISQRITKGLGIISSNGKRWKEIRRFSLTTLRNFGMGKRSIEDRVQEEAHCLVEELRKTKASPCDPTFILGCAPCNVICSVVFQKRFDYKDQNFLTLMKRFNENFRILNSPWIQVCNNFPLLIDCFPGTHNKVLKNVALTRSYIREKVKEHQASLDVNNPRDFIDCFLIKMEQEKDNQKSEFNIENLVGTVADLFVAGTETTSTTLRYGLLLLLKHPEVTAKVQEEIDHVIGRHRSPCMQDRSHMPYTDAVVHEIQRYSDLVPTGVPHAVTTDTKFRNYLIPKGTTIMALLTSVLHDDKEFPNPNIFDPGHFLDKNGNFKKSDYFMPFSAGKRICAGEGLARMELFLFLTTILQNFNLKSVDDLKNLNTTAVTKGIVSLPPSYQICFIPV
Text: as §1

CYP2C9 = CYP2C9 (Homo sapiens (Human), UniProt P11712); experiment: CYP inhibition, fluorogenic substrate; assay type: in vitro ADME; design: dose or concentration left out as unconfirmed; details: recombinant CYP2C9, pH 7.4
Chain of CYP2C9 (P11712 whole entry): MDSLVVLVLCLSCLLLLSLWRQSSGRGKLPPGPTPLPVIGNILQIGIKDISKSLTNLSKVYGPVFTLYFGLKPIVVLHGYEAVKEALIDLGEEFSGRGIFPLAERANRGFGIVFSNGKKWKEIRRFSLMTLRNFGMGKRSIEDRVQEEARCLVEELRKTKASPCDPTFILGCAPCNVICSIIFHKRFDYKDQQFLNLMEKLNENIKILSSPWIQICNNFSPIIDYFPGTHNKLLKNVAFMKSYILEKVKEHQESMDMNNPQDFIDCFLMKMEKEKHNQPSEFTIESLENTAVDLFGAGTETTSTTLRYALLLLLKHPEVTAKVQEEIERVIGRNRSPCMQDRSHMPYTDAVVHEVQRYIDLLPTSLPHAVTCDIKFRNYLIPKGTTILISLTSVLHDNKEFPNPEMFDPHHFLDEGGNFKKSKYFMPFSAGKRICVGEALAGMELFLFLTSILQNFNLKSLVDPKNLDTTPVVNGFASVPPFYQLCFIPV
Text: as §1

CYP2D6 = CYP2D6 (Homo sapiens (Human), UniProt P10635); experiment: CYP inhibition, fluorogenic substrate; assay type: in vitro ADME; design: dose or concentration left out as unconfirmed; details: recombinant CYP2D6, pH 7.4
Chain of CYP2D6 (P10635 whole entry): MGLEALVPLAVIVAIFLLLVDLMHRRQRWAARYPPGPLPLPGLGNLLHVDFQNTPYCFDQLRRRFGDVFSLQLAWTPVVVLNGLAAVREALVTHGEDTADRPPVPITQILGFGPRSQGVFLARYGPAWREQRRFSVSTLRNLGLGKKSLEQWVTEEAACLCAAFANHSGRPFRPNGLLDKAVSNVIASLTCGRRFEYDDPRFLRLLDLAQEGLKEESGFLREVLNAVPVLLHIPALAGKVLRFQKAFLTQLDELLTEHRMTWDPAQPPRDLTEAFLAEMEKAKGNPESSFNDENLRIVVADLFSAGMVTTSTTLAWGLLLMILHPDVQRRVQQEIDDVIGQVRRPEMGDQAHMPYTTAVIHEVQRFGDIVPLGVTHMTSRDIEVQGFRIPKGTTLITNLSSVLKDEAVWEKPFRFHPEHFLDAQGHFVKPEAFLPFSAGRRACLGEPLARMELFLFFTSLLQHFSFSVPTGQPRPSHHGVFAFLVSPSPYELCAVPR
Text: as §1

CYP2C9 and CYP2C19 = details: cited from earlier work
[3] = biological target: P450 cytochrome 1A2 (CYP1A2) (Homo sapiens (Human), UniProt P05177); details: cited from earlier work
Chain of P450 cytochrome 1A2 (CYP1A2) (P05177 whole entry): as the sequence (P05177 whole entry) above

Papp A→B at 60 min ([1]; apical to basolateral, 60 min, read-out: Permeability A-B (pH 6.5/7.4)): 83.9 ×10⁻⁶ cm/s
Papp B→A at 40 min ([1]; basolateral to apical, 40 min, read-out: Permeability B-A (pH 6.5/7.4)): 48.5 ×10⁻⁶ cm/s
solubility at 24 h [2]: 196 µM (≈ 47.7 µg/mL)
Intrinsic clearance half-life, Human (human hepatocytes): 48 min
affinity to cytochrome isoforms (in words) (CYP1A2): high affinity
inhibition (CYP2B6): 1.8%
inhibition (CYP2C19): 44.4%
inhibition (CYP2C8): 12.9%
inhibition (CYP2C9): -19.3%
inhibition (CYP2D6): 7.9%
SMILES: COc1ccc2cccc(CCNC(C)=O)c2c1 [IA2-76, agomelatine, reference compound]
share metabolized by CYP2C9 and CYP2C19 (CYP2C9 and CYP2C19): 10%
share metabolized in the liver by CYP1A2 [3]: Around 90%
